In test [1] the target is T1, GenB1 (Micromonospora echinospora, UniProt Q70KD9).
T1 construct: gene gacK; N-His6-tagged, pET28a(+), E. coli BL21(DE3); contains PLP
Description: LC-ESI-MS, GenQ-coupled transamination. The note with it: amino donor 2 mM; 6'-DOG made in situ from 200 uM G418 by 16 uM GenQ; 20 uM GenB1; Tris-HCl pH 8.0, 30 °C. The format is biochemical.

For test [2], the target named is T2, GenB2 (Micromonospora echinospora, UniProt Q70KE6).
T2 construct: gene gacE; N-His6-tagged, pET28a(+), E. coli BL21(DE3); contains PLP
Description: LC-ESI-MS, […]'-epimerization. The format is biochemical. The note with it: 200 uM substrate, 20 uM enzyme, Tris-HCl pH 8.0, 30 °C overnight; reversible.

For test [3], the target named is T3, GenQ (VM_GenQ) (Micromonospora echinospora, UniProt Q70KE0).
T3 construct: gene gacJ; full length with 38 extra N-terminal residues absent in original annotation; N-His6 tag, pET28a(+), E. coli BL21(DE3); contains FAD
The test can be described thus: LC-ESI-MS, […]'-dehydrogenation. The test is classed as biochemical. The note with it: 200 uM substrate, 16 uM enzyme, Tris-HCl pH 8.0, 30 °C overnight.

For test [4], the target named is T1, GenB1. Description: UV-visible absorption spectrum. The format is binding. The following applies: co-purified cofactor.
Test [5] has as its target T4, GenB4 (Micromonospora echinospora, UniProt Q6QVT7).
T4 construct: gene gntH; N-His6-tagged, pET28a(+), E. coli BL21(DE3); contains PLP
Description: UV-visible absorption spectrum. The test is classed as binding. The note with it: co-purified cofactor.

Test [6] deals with T5, GenB3 (Micromonospora echinospora, UniProt Q2MG50).
T5 construct: N-His6-tagged, pET28a(+), E. coli BL21(DE3); contains PLP
The test can be described thus: UV-visible absorption spectrum. The following applies: co-purified cofactor. The format is binding.

Test [7] concerns the target T2, GenB2. Description: UV-visible absorption spectrum. The format is binding. The following applies: co-purified cofactor.

This is an account of results in paper PMC4039129, “Specificity and Promiscuity at the Branch Point in Gentamicin Biosynthesis” (Chemistry & Biology, 2014).

T2 sequence (Q70KE6 entry or part of it): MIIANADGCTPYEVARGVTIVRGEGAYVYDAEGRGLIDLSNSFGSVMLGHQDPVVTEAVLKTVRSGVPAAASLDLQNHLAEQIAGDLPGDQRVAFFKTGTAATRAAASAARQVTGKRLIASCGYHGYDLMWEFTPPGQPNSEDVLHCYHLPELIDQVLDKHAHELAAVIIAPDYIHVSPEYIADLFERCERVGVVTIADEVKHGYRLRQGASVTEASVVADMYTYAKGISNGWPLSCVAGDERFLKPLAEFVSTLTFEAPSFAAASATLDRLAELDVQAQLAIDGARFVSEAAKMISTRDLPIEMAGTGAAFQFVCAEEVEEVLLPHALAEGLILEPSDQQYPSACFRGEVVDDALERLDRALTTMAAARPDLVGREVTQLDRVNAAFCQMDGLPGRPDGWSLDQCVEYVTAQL
T1 sequence (Q70KD9 entry or part of it): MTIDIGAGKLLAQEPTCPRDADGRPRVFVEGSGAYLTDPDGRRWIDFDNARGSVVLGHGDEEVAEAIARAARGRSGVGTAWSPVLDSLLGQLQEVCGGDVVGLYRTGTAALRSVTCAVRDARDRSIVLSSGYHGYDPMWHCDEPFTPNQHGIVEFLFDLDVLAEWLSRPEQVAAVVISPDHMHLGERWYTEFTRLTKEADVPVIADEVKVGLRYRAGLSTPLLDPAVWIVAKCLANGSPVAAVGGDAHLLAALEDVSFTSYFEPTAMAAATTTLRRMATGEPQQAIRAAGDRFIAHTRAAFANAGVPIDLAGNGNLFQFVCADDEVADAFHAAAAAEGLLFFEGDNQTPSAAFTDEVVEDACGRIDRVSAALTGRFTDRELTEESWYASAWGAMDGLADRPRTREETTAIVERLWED
T5 sequence (Q2MG50 entry or part of it): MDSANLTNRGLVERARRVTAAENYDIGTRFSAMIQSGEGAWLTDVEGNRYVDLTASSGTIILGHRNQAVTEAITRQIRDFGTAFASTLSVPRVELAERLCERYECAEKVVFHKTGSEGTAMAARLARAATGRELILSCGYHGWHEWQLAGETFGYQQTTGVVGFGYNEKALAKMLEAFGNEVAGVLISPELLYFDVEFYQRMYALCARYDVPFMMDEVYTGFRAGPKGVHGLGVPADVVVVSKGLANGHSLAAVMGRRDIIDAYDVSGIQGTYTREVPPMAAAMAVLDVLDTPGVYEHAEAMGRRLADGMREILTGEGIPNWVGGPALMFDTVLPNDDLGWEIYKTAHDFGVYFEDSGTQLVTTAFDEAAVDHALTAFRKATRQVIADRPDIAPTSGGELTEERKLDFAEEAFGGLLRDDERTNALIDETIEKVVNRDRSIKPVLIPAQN
T3 sequence (Q70KE0 entry or part of it): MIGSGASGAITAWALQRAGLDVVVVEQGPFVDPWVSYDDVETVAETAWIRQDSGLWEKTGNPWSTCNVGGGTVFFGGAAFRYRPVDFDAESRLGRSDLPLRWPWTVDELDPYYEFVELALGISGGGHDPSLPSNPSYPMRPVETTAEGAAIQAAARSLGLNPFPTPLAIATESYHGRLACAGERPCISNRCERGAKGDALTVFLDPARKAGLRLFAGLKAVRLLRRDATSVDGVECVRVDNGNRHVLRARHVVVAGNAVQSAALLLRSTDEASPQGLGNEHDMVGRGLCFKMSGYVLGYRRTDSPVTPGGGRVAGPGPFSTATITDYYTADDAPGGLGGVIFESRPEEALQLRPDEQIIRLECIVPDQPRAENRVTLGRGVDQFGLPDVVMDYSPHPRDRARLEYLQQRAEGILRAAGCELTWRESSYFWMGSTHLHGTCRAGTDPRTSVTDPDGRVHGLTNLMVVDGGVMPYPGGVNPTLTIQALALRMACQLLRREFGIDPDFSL
T4 sequence (Q6QVT7 entry or part of it): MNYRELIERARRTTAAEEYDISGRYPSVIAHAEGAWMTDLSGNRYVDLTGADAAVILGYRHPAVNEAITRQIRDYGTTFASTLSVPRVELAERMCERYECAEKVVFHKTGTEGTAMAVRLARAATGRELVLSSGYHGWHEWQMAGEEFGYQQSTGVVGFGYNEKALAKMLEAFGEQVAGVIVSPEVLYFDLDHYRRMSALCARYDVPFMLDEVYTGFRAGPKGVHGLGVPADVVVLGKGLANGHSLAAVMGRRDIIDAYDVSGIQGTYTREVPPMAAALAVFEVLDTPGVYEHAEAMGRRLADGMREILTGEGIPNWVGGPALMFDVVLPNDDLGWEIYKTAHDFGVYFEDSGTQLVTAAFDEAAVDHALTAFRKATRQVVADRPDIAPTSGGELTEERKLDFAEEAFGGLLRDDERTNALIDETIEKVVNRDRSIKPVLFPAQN

As to `CSCC[C@H](N)C(=O)O` [L-methionine], the “LC-ESI-MS, GenQ-coupled transamination” value in test [1] is listed as “conversion of G418 to JI-20B, with L-methionine as the most effective amino donor”.

Take `CN[C@@H]1[C@@H](O)[C@@H](O[C@@H]2[C@@H](O)[C@H](O[C@H]3O[C@H]([C@H](C)N)CC[C@H]3N)[C@@H](N)C[C@H]2N)OC[C@]1(C)O` [gentamicin C2a]: in test [2], the “LC-ESI-MS, 6'-epimerization” value was “when C2a was used as the substrate the reverse reaction was also detected”.

Consider `CN[C@@H]1[C@@H](O)[C@@H](O[C@@H]2[C@@H](O)[C@H](O[C@H]3O[C@H](CO)[C@@H](O)[C@H](O)[C@H]3N)[C@@H](N)C[C@H]2N)OC[C@]1(C)O` (stereo in doubt) [gentamicin X2], for which the “LC-ESI-MS, 6'-dehydrogenation” value in test [3] is “GenQ also showed activity with X2 as the substrate”.

Take `Cc1ncc(COP(=O)(O)O)c(C=O)c1O` [pyridoxal-5′-phosphate]: the UV-visible absorption spectrum entry in test [4], in test [5], in test [6] and in test [7] was “UV-visible absorption spectra typical of aminotransferases containing bound pyridoxal-5′-phosphate cofactor” throughout.

Turning to `CN[C@@H]1[C@@H](O)[C@@H](O[C@@H]2[C@@H](O)[C@H](O[C@H]3O[C@H]([C@@H](C)N)CC[C@H]3N)[C@@H](N)C[C@H]2N)OC[C@]1(C)O` [gentamicin C2], the “LC-ESI-MS, 6'-epimerization” value in test [2] is reported as “GenB2 did catalyze the epimerization of C2”.
